These results are taken from PubChem BioAssay AID1159565 (GlaxoSmithKline (GSK), 2015).

For orientation: IC50 means the point on the concentration scale where inhibition reaches its midpoint.

Calls of active or inactive are those of the source. The rule behind the calls is not given here.

For the first assay, the system named is T. cruzi-infected H9C2 cardiomyocytes, high-content imaging. The assay is described as follows: intracellular T. cruzi amastigote inhibition, imaging, H9C2 host cardiomyocytes, host toxicity (AID 1159565).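 Note: infected cells incubated 72 h after plating.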
Settings: not given
In the case of `NC(=O)c1cc(F)ccc1Nc1nc(NC2CCC(O)CC2)ncc1Br` (configuration not stated), the IC50 was 2 µM.

On to `c1ccc2sc(Nc3nc4ncccc4[nH]3)nc2c1`, for which the half-maximal inhibitory concentration (IC50) was 1.6 µM.

`CC(=O)Nc1ccc(CN2CCC(N3CC(c4ccccc4)(c4ccccc4)OCC3=O)CC2)cc1`: the IC50 was 32 µM.

`O=C(CN(Cc1ccccn1)Cc1ccccn1)NCc1ccc2c(c1)OCO2`: the IC50 is 13 µM.

For `CCC(CC)C(=O)Nc1cccc(C(=O)Nc2nnc(C3CCCCC3)s2)c1`, the IC50 is 25 µM.

Consider `NS(=O)(=O)c1ccc(Nc2nccc(-c3cnn4ncccc34)n2)cc1`, for which the IC50 was 16 µM.

As for `COc1ccc2ncc(=O)n(CCN3CCC(NCc4ccc(-c5cccs5)cc4)CC3)c2n1`, the IC50 is 1.6 µM.

Turning to `O=C1NCc2cccc(Nc3nc(NC4CCC(O)CC4)ncc3Br)c21` (configuration not stated), the IC50 was 1 µM.

As to `O=c1cc(CSc2ccc(Cl)cc2)nc(-c2ccccn2)[nH]1`, the IC50 is 1.6 µM.

As to `O=C1OCc2ccc(Nc3nccc(-c4cnn5ncccc45)n3)cc21`, the IC50 is 0.063 µM.

On to `CCOc1ccc2nc(NC(=O)c3ccc([N+](=O)[O-])s3)sc2c1`, for which the IC50 was 1.3 µM.

Take `Cc1cc(N(C)C)nc(Nc2ccccc2C)n1`: the half-inhibitory concentration (IC50) is 0.79 µM.

On to `COc1ccc(C2CC(c3ccc(NS(C)(=O)=O)cc3)=NN2C(=O)c2cccs2)cc1OC` (configuration not stated), for which the IC50 was 32 µM.

`N#Cc1ccccc1S(=O)(=O)N1CCN(C(=O)CNC(=O)c2ccc3c(c2)OCO3)CC1`: the IC50 was 1 µM.

As for `CC(=O)Nc1ccc(-c2noc(CC3CCCN(Cc4cccc(F)c4C)C3)n2)cc1` (configuration not stated), the IC50 is 2 µM.

Take `CC(C)CC(=O)Nc1cc(C2CC2)nn1-c1nc2c(c(=O)[nH]1)CCCC2`: the concentration for half-maximal inhibition (IC50) is 0.5 µM.

Regarding `Cc1cc2cncn2c(C2CCCCN2C(=O)c2cccs2)n1` (configuration not stated), the IC50 is 0.063 µM.

In the case of `O=C(O)[C@H]1C[C@@H]1c1ccc(-c2ccc(CN(CCc3ccccn3)C(=O)C3CCC3)cc2)cc1`, the IC50 is 32 µM.

Consider `N#Cc1ccc(S(=O)(=O)N2CCC3(CCN(c4ccccc4)C3=O)CC2)cc1`, for which the IC50 is 1 µM.

For the molecule `CN1CCCN(C(=O)c2ccc(N3CCCC3)cc2Cl)CC1`, the IC50 is 1 µM.

On to `CN(Cc1nc2ccc(C(=O)NCC3CCCCC3)cc2[nH]1)C1CCCc2cccnc21` (configuration not stated), for which the IC50 is 0.63 µM.

Regarding `Cc1ccc2ccc(C(Nc3ccccn3)c3cccnc3)c(O)c2n1` (configuration not stated), the IC50 is 0.2 µM.

Turning to `CS(=O)(=O)N1CCC(Nc2ncc(Br)c(Nc3cccc(F)c3C(N)=O)n2)CC1`, the IC50 was 1 µM.

With `c1ccc(-c2nc(NCc3ccco3)c3ccccc3n2)nc1`, the IC50 is 3.2 µM.

Take `COc1ccc2ncc(Cl)c(CCN3CC[C@@H](NCc4cc5c(cn4)OCS5)[C@H](O)C3)c2n1`: the IC50 is 0.079 µM.

Take `NC(=O)c1cc(NC(=O)c2ccccc2COc2ccccc2)ccc1Cl`: the IC50 was 32 µM.

Regarding `CC(=Cc1ccccc1)CN1CCC(=O)N(Cc2cccnc2)CC1`, the IC50 is 0.5 µM.

`Cn1nccc1-c1cc(OC(CN)c2ccccc2)cnc1-c1ccco1` (configuration not stated): the IC50 was 0.1 µM.

With `CC(C)n1c(-c2nonc2N)nc2cccc(OCCN3CCCC3)c21`, the IC50 was 16 µM.

Take `O=[N+]([O-])c1ccc(C2=CC(c3ccccc3)=NCCN2)cc1`: the half-inhibitory concentration (IC50) was 1 µM.

As to `O=C(Nc1nc(-c2ccc(F)cc2)cs1)c1ccc([N+](=O)[O-])s1`, the IC50 was 0.25 µM.

With `O=C(Nc1ccc(-c2nc3ccccc3c(=O)[nH]2)cc1)c1cccs1`, the IC50 is > 50 µM (inactive).

Turning to `O=C1COC(c2ccccc2)(c2ccccc2)CN1C1CCN(Cc2ccc(-n3ccnc3)cc2)CC1`, the IC50 is 2 µM.

Turning to `COc1ccc(Nc2nc(-c3ccccn3)cc(N3CCCC(O)C3)n2)cc1` (configuration not stated), the IC50 is 5 µM.

Consider `CS(=O)(=O)NC1CCC(Nc2ncc(Br)c(Nc3ccccc3C(N)=O)n2)CC1` (configuration not stated), for which the IC50 is 5 µM.

As for `CCN(CC)c1ccc(S(=O)(=O)N(CC)CC)c2nonc12`, the concentration for half-maximal inhibition (IC50) is 50 µM.

With `CCOc1ccc(N(C)S(=O)(=O)c2ccc3[nH]cc(C(=O)NC4CCCC4)c(=O)c3c2)cc1`, the IC50 is > 50 µM (inactive).

Turning to `CC(=O)Nc1nc(-c2cc(C)ccc2C)c(C)s1`, the IC50 is 0.2 µM.

Consider `Cc1cc(Nc2ccc(C#N)c(Cl)c2C)n[nH]1`, for which the IC50 is > 50 µM (inactive).

On to `CS(=O)(=O)c1ccc(Nc2nccc(Nc3n[nH]c4ccc(F)cc34)n2)c(F)c1`, for which the IC50 was 32 µM.

On to `Cc1ccnc(NS(=O)(=O)c2ccc(NC(=O)c3ccc([N+](=O)[O-])s3)cc2)n1`, for which the IC50 is 10 µM.

Regarding `CCC(=O)Nc1ccccc1C(=O)Nc1ccccn1`, the IC50 was > 50 µM (inactive).

Consider `CC1(Oc2cncc(Cl)c2)CCN(Cc2cc3ccccc3[nH]2)C1` (configuration not stated), for which the IC50 is 1.6 µM.

As to `O=C(Nc1nc(-c2ccccn2)cs1)c1ccc(S(=O)(=O)N2CCCCC2)cc1`, the IC50 is 0.63 µM.

In the case of `Cc1c(C(=O)NCCCCn2ccnc2)oc2c(C)cccc12`, the IC50 is 0.5 µM.

On to `Cn1cc(CN2CCN(c3ccc4c(c3)CCN(C(=O)[C@H]3C[C@@H]3c3ccccc3)CC4)CC2)cn1`, for which the half-maximal inhibitory concentration (IC50) was 3.2 µM.

`Cc1ncsc1CNc1cnc(-c2ccc3c(c2)OCCO3)c(-c2cnn(C)c2)c1`: the IC50 was 40 µM.

In the case of `CCCCNc1nccc(-c2c(-c3ccc(F)cc3)nn3c(N4CCOCC4)cccc23)n1`, the IC50 is 3.2 µM.

In the case of `CN(C)CCN(C)Cc1ccc(F)cc1NS(=O)(=O)c1ccc(Cl)c(Cl)c1`, the IC50 was 2.5 µM.

On to `Cc1nn2c(NCCCO)c3c(nc2c1-c1cccs1)CCC3`, for which the IC50 is 50 µM.

As for `Cc1cc(NC(=O)C2CCCCC2)n(-c2nc3c(c(=O)[nH]2)CCC3)n1`, the IC50 was 0.5 µM.

Regarding `CC(=O)Nc1ccc(-c2cnc(N)c(-c3nc4ccc(F)cc4[nH]3)c2)cc1`, the IC50 is > 50 µM (inactive).

`Cc1cc(N2CCc3ccccc3C2)nc(Nc2ccc(S(=O)(=O)N3CCOCC3)cc2)n1`: the IC50 is > 50 µM (inactive).

Regarding `CCCc1nc2nc(N)nc(N)c2cc1CC`, the IC50 is 0.32 µM.

In the case of `COc1ccc(-c2cnc(NC(=O)c3ccc(F)cc3)n2C)cc1`, the IC50 was 5 µM.

The same assay, now with this note: measured here: H9C2 host cell toxicity.
In turn, `NC(=O)c1cc(F)ccc1Nc1nc(NC2CCC(O)CC2)ncc1Br` (configuration not stated) displayed an IC50 of 0.5 µM.

`c1ccc2sc(Nc3nc4ncccc4[nH]3)nc2c1`: the IC50 was determined as 1 µM.

Molecule `CC(=O)Nc1ccc(CN2CCC(N3CC(c4ccccc4)(c4ccccc4)OCC3=O)CC2)cc1` yielded an IC50 of over 50 µM.

`O=C(CN(Cc1ccccn1)Cc1ccccn1)NCc1ccc2c(c1)OCO2` had an IC50 of over 79 µM.

The molecule `CCC(CC)C(=O)Nc1cccc(C(=O)Nc2nnc(C3CCCCC3)s2)c1` returned an IC50 of over 50 µM.

Consider `NS(=O)(=O)c1ccc(Nc2nccc(-c3cnn4ncccc34)n2)cc1`, for which the IC50 worked out at 0.32 µM.

As to `COc1ccc2ncc(=O)n(CCN3CCC(NCc4ccc(-c5cccs5)cc4)CC3)c2n1`, the IC50 stood at 7.9 µM.

`O=C1NCc2cccc(Nc3nc(NC4CCC(O)CC4)ncc3Br)c21` (configuration not stated) came in with an IC50 of 0.1 µM.

For the molecule `O=c1cc(CSc2ccc(Cl)cc2)nc(-c2ccccn2)[nH]1`, the IC50 is 3.2 µM.

`O=C1OCc2ccc(Nc3nccc(-c4cnn5ncccc45)n3)cc21` yielded an IC50 of 0.025 µM.

On to `CCOc1ccc2nc(NC(=O)c3ccc([N+](=O)[O-])s3)sc2c1`, for which the IC50 stood at 10 µM.

Turning to `Cc1cc(N(C)C)nc(Nc2ccccc2C)n1`, the IC50 was over 50 µM.

The molecule `COc1ccc(C2CC(c3ccc(NS(C)(=O)=O)cc3)=NN2C(=O)c2cccs2)cc1OC` (configuration not stated) registered a half-maximal inhibitory concentration (IC50) of over 50 µM.

For `N#Cc1ccccc1S(=O)(=O)N1CCN(C(=O)CNC(=O)c2ccc3c(c2)OCO3)CC1`, the IC50 was over 50 µM.

The molecule `CC(=O)Nc1ccc(-c2noc(CC3CCCN(Cc4cccc(F)c4C)C3)n2)cc1` (configuration not stated) returned an IC50 of 32 µM.

In turn, `CC(C)CC(=O)Nc1cc(C2CC2)nn1-c1nc2c(c(=O)[nH]1)CCCC2` gave an IC50 of 2.5 µM.

The molecule `Cc1cc2cncn2c(C2CCCCN2C(=O)c2cccs2)n1` (configuration not stated) returned an IC50 of over 50 µM.

`O=C(O)[C@H]1C[C@@H]1c1ccc(-c2ccc(CN(CCc3ccccn3)C(=O)C3CCC3)cc2)cc1` came in with an IC50 of over 50 µM.

Molecule `N#Cc1ccc(S(=O)(=O)N2CCC3(CCN(c4ccccc4)C3=O)CC2)cc1` gave an IC50 of over 50 µM.

Take `CN1CCCN(C(=O)c2ccc(N3CCCC3)cc2Cl)CC1`: the IC50 was over 50 µM.

As for `CN(Cc1nc2ccc(C(=O)NCC3CCCCC3)cc2[nH]1)C1CCCc2cccnc21` (configuration not stated), the IC50 was 5 µM.

In turn, `Cc1ccc2ccc(C(Nc3ccccn3)c3cccnc3)c(O)c2n1` (configuration not stated) registered an IC50 of 32 µM.

`CS(=O)(=O)N1CCC(Nc2ncc(Br)c(Nc3cccc(F)c3C(N)=O)n2)CC1`: the IC50 was found to be 0.16 µM.

Molecule `c1ccc(-c2nc(NCc3ccco3)c3ccccc3n2)nc1` gave an IC50 of 2 µM.

In turn, `COc1ccc2ncc(Cl)c(CCN3CC[C@@H](NCc4cc5c(cn4)OCS5)[C@H](O)C3)c2n1` gave an IC50 of 25 µM.

The molecule `NC(=O)c1cc(NC(=O)c2ccccc2COc2ccccc2)ccc1Cl` showed an IC50 of over 50 µM.

In turn, `CC(=Cc1ccccc1)CN1CCC(=O)N(Cc2cccnc2)CC1` returned an IC50 of over 50 µM.
